# Key:
# [1] = target: T1, human Serotonin 5-HT1D receptor (Homo sapiens, UniProt P28221); assay: GTPγS functional assay; assay type: biochemical; conditions: read-out: Functional activity (agonist)
# T1 construct: purchased Euroscreen
# Method: (§1) Functional profiling of agonist and antagonist activities of 8′-OH DHE on human Adrenergic α1D, Dopamine D2L, and Serotonin 5-HT1B, 5-HT1D, 5-HT1F, 5-HT3, 5-HT4e and 5-HT5A receptors (compared against the parent (DHE) molecule) was carried out as follows.
# (§2) The SPA 35S-GTPγS tests were conducted with Euroscreen membrane preparations […]. The HTRF assays were conducted with recombinant cell lines. The receptor accession numbers, cellular background and reference compounds are as reported below in Table 10.
# (§3) (3) 8′-OH DHE was tested for agonist and antagonist activity at the human Serotonin 5-HT1B and Serotonin 5-HT1D receptors using GTPγS assay (in triplicate) at the following nanomolar concentrations: […]
# (§4) The assay procedure was carried out as follows. […] The plates were then centrifuged for 10 minutes at 2,000 rpm and counted for 1 min/well with a Perkin Elmer TopCount reader.
# (§5) Agonist activity of the test compounds was expressed as a percentage of the activity of the reference agonist at its EC100 concentration. Antagonist activity of the test compounds was expressed as a percentage of the inhibition of the reference agonist activity at its EC80 concentration. Dose-response data from the test compounds were analyzed with XLfit (IDBS) software using nonlinear regression applied to a sigmoidal dose-response model and the following equation: […]
# Adenosine A2a = target: T2, Adenosine A2a (Homo sapiens, UniProt P29274); assay: cAMP HTRF assay; assay type: cell-based
# T2 construct: expressed in transfected cells; host or cells: HEK293
# Method: Additional receptor agonist/agonist activity assessments were performed using the 8′-OH DHE test compound. Table 12 contains a summary of the cell lines (CHO-K1/HEK293 transfected with relevant human receptor) and the assays performed to detect any agonist or antagonist activity.
# Cells expressing the human recombinant receptor of interest were grown in media without antibiotic and detached by gentle flushing with PBS-EDTA (5 mM EDTA), recovered by centrifugation and resuspended in assay buffer (KRH: 5 mM KCl, 1.25 mM MgSO4, 124 mM NaCl, 25 mM HEPES, 13.3 mM glucose, 1.25 mM KH2PO4, 1.45 mM CaCl2, 0.5 g/L BSA). Dose response curves were performed in parallel with the reference compounds. For agonist tests (96-well plates), 12 μL of cells was mixed with 12 μL of the test 8′-OH DHE compound at increasing concentrations and then incubated for 30 minutes at RT. Lysis buffer was added and after one hour incubation, cAMP concentrations were determined according to the manufacturer specification with the HTRF kit. For antagonist tests (96-well plates), 12 μL of cells was mixed with 6 μL of the test 8′-OH DHE compound at increasing concentrations and then incubated for 10 minutes. […] Lysis buffer was added and after 1 hour incubation, cAMP concentrations were determined according to the manufacturer specification, with the HTRF kit. […]
# [2] = target: T3, human Serotonin 5-HT1B receptor (Homo sapiens, UniProt P28222); assay: GTPγS functional assay; assay type: biochemical; conditions: read-out: Functional activity (agonist)
# T3 construct: purchased Euroscreen
# Method: as §1, §2, §3, §4, §5
# T2 sequence (P29274 whole entry): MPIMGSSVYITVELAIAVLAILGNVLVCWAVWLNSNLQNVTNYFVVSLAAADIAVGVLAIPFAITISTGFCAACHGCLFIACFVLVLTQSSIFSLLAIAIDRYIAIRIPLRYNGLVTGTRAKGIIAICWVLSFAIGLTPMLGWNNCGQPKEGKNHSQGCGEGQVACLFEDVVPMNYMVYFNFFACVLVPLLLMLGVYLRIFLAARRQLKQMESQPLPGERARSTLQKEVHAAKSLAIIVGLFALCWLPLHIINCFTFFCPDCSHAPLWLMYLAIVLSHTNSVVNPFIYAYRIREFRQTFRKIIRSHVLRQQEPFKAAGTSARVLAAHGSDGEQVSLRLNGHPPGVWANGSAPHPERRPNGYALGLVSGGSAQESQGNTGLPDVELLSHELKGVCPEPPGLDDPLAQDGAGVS
# T1 sequence (P28221 whole entry): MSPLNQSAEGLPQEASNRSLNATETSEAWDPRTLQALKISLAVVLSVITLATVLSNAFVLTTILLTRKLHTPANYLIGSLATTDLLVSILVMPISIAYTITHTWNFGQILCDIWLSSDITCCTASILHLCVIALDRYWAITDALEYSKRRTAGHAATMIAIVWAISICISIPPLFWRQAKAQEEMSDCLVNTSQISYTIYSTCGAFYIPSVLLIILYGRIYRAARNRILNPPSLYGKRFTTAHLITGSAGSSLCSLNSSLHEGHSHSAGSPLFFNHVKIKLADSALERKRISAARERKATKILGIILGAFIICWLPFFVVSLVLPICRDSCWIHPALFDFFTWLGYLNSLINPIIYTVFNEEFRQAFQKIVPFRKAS
# T3 sequence (P28222 whole entry): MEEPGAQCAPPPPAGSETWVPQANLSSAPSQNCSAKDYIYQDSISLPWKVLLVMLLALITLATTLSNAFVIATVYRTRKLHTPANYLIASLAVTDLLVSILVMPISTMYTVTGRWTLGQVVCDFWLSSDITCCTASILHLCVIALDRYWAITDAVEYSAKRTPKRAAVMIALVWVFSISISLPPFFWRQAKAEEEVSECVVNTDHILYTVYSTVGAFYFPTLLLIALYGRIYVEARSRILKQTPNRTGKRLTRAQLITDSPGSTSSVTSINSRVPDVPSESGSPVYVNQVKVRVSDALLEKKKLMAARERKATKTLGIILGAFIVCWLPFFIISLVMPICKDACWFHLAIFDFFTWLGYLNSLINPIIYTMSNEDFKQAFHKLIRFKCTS
compound,measurement,setting,value
"CN1C[C@H](C(=O)N[C@]2(C)O[C@@]3(O)[C@@H]4CCC(O)N4C(=O)[C@H](Cc4ccccc4)N3C2=O)C[C@@H]2c3cccc4[nH]cc(c34)C[C@H]21 (stereo partly drawn) [8′-OH DHE, 8′-Hydroxy-Dihydroergotamine]",EC50,[1],0.49 nM
same,Activity (Agonism: EC50; Antagonism: IC50),Adenosine A2a,Inactive
same,EC50,[2],0.73 nM

# Source: patent US20150306096A1, “8'-HYDROXY-DIHYDROERGOTAMINE COMPOUNDS AND COMPOSITIONS” (MAP Pharmaceuticals, Inc., priority 2012, published 2015)
